# Earlier results as cited in patent US6930103B2, “Use of vasopeptidase inhibitors in the treatment of metabolic diseases, nephropathy and advanced glycation end-product associated diseases” (Aventis Pharma Deutschland GmbH, priority 2002, dated 2005).
# Conditions: acute treatment; Chen et al., Hypertension 2001; cited from earlier work
structure (smiles),measurement,value
O=C(N[C@H]1CCS[C@H]2CCC[C@@H](C(=O)O)N2C1=O)[C@@H](S)Cc1ccccc1 [omapatrilat],Natriuretic response compared with ACE inhibitor fosinoprilat,greater natriuretic response
